One molecule from patent publication US20260284240A1, “RADIOLABELED COMPOUND FOR USE IN A METHOD OF TREATING CARBONIC ANHYDRASE IX POSITIVE DISEASES” (DEBIOPHARM INTERNATIONAL S.A., priority 2023, published 2026) can be followed below.

The structures appear in SMILES notation. Where two headings read alike, the source gives them in different places. Starred links: 1 amine or outer side, 2 acyl side, 3 side chain; linkers in the order of their positions; H or OH if unused. Positions of bridges follow the written chain, without caps; N, C: chain ends. Non-standard residues stand in square brackets, D forms with d. Residues, ends and D or L forms follow the SMILES beside them. *: point of attachment. Phe(3-NHCO(CH2)3SO2NH2) = N[C@@H](Cc1cccc(NC(=O)CCCS(N)(=O)=O)c1)C(=O)O; DOTA = O=C(O)CN1CCN(CC(=O)O)CCN(CC(=O)*)CCN(CC(=O)O)CC1; mXylylene = c1cc(C[*:1])cc(C[*:2])c1; X1 = O=C(CN1CCN([*:1])CC1)[*:2]

Data set [1] is described as follows: GLP extended single-dose i.v. toxicity study in beagle dogs. Type of data set: in vivo, dog. As to the method:
The following parameters and endpoints were evaluated: mortality, clinical observations, body weights, food consumption, body temperature, local reactions, ophthalmology, clinical pathology parameters (hematology, coagulation, clinical chemistry, and urinalysis), cardiovascular and respiratory safety pharmacology endpoints along with FOB evaluation, organ weights, and macroscopic and microscopic examinations, and TK parameters. The animals from subset A (3 males and 3 females per group) were sampled for toxicokinetics (TK) at: pre-dose, 5 min, 15 min, 30 min, 1 h, 2 h, 3 h and 6 h. Blood samples were collected in K2EDTA tubes. Plasma was prepared by centrifugation (2500 g for 10 minutes, +4° C.) within 1 hour after collection, and then frozen within 1 hour after centrifugation and stored at −80° C. […] Chromatographic separation was achieved using a Waters Acquity UPLC system with a Waters Acquity HSS T3 C18 2.1×50 mm, 1.8 μm column. Chromatography was conducted at 50° C. at a flow rate of 0.7 mL/min using a mobile phase consisting of A: 1% formic acid in acetonitrile, and B: 1% formic acid in water, according to the following linear gradient: 0 to 0.1 min: 90% B; 0.1 to 4.1 min: from 90% B to 74% B; 4.1 to 4.2 min: from 74% B to 5% B; 4.2 to 4.6 min: 5% B; 4.6 to 4.7 min: from 5% B to 90% B; 4.7-5.1 min; 90% B. Detection was performed using a Sciex AP16600 TOF mass spectrometer. Toxicokinetic parameters were estimated from concentration-time data using Phoenix pharmacokinetic software (version 6.4, Certara L.P.). A non-compartmental approach consistent with the bolus intravenous injection was used for parameter estimation.

A short description of data set [2]: Pharmacokinetics after single i.v. dose in healthy male beagle dogs. It is filed as in vivo. The following applies: dog; for concentration at 24 h / dose excreted at 24 h: iv; for concentration at 24 h: 24 h urine, read-out: Mean amount of unchanged compound excreted in urine; for dose excreted at 24 h: urine, read-out: Dose excreted unchanged in urine. The protocol: The pharmacokinetics of DPI-4452 after a single intravenous (i.v.) dose was investigated in healthy dogs. […] Plasma and urine samples collected after dosing were analyzed using a LC-HRMS (liquid chromatography coupled with high-resolution mass spectrometry) assay method. Concentration values were used for pharmacokinetic calculations.
DPI 4452 was formulated in 0.1 M HEPES pH 7.0 at the final concentrations of 0.05 and 0.4 mg/mL for dosing at 0.1 and 0.8 mg/kg, respectively. Male beagle dogs (3 animals per dose level; overall 8.9 to 12.4 kg body weight) were administered intravenously (bolus) in a 2 mL/kg dosing volume. Blood samples were collected in K2EDTA tubes at 5 min, 15 min, 30 min, 1 h, 2 h, 4 h, 6 h, 24 h, and urine was collected over 24 hours post dose. The blood samples were kept on wet ice until plasma separation by centrifugation within 60 min after sampling. The plasma samples were transferred into plastic tubes, frozen and stored at −80° C. until analysis.
Plasma and urine samples were analyzed by LC-HRMS after solid phase extraction, using DPI-4501 as internal standard. Chromatographic separation was run on a Waters Acquity HSS T3 C18 2.1×50 mm, 1.8 μm column. Detection was achieved on a Sciex AP16600 TOF mass spectrometer. The lower limit of quantification was 2.00 ng/mL in urine and plasma.
The NCA pharmacokinetic analysis of plasma concentration data was conducted using Phoenix WinNonlin 6.3 software. Nominal doses were used for all animals. The terminal phase half-life (T1/2) was calculated by least-squares regression analysis of the terminal linear part of the log concentration-time curve. The area under the plasma concentration-time curve (AUC) was determined with the linear trapezoidal rule for increasing values and log trapezoidal rule for decreasing values up to the last measurable concentration.

A short description of data set [3]: Pharmacokinetics after single i.v. dose in healthy male CD-1 mice. Type of data set: in vivo. The following applies: urine, iv, mouse, read-out: Injected dose retrieved from urine unchanged over 8 hours. As to the method:
The pharmacokinetics of DPI-4452 after a single intravenous (i.v.) dose were investigated in healthy mice. […] Plasma and urine samples collected after dosing were analyzed using a LC-HRMS (liquid chromatography coupled with high-resolution mass spectrometry) assay method. Concentration values were used for pharmacokinetic calculations.
Male CD-1 mice (3 animals per time point and per dose level; overall, 28.2-37.6 g body weight) were administered intravenously in the tail vein in a 2 mL/kg dosing volume. Blood samples were collected in K2EDTA tubes at 5 min, 15 min, 30 min, 1 h, 2 h, 4 h, 8 h, and urine was collected over 8 hours post dose. […]
Plasma and urine samples were analyzed by LC-HRMS after solid phase extraction, using a stable isotope-labeled internal standard (^13C6, ^15N-DPI-4452). […] The lower limit of quantification was 1.00 ng/mL in plasma and urine.
The non-compartmental (NCA) pharmacokinetic analysis of plasma concentration data was conducted using Phoenix 64 WinNonlin (Build 8.3.3.33) software. […] The terminal phase half-life (T1/2) was calculated by least-squares regression analysis of the terminal linear part of the log concentration-time curve. The area under the plasma concentration-time curve (AUC) was determined with the linear trapezoidal rule for increasing values and log trapezoidal rule for decreasing values up to the last measurable concentration.

As to `CC(C)C[C@@H]1NC(=O)[C@H](Cc2cccc(NC(=O)CCCS(N)(=O)=O)c2)NC(=O)[C@H](CC(=O)O)NC(=O)[C@H]2CCCN2C(=O)[C@H](CCC(=O)O)NC(=O)[C@@H](NC(=O)[C@H](CCC(N)=O)NC(=O)CN2CCN(C(=O)CN3CCN(CC(=O)O)CCN(CC(=O)O)CCN(CC(=O)O)CC3)CC2)CSCc2cccc(c2)CSC[C@@H](C(N)=O)NC(=O)[C@H](CO)NC(=O)[C@H](Cc2c[nH]c3ccccc23)NC(=O)[C@H]([C@@H](C)O)NC1=O` [DPI-4452, DOTA-PPAc-Gln-[Cys(3MeBn)-Glu-pro-Asp-Af3(Cpsu)-Leu-Thr-Trp-Ser-Cys]-NH2] ({DOTA}-[X1]QCE[dP]D[Phe(3-NHCO(CH2)3SO2NH2)]LTWSC-NH2; linker 3-12 via mXylylene), the “Human equivalent dose of the dog NOAEL” value in data set [1] (considering a 60 kg human) was 13.3 mg. For the same molecule, in data set [1] (dog, single i.v. 16, 80, 400 μg/kg), the “Clinical signs or local reactions” value is given as “no DPI-4452 treatment-related clinical signs or local reactions were observed”. For the same molecule, in data set [1] (dog, single i.v. bolus up to 400 μg/kg), the Tolerability result was “well tolerated”. Moreover, the entries for the “Time up to which plasma concentration was quantifiable” value in data set [2] (i.v. 0.1 mg/kg) and in data set [2] (i.v. 0.8 mg/kg) were “up to 2 h” and at most 4 h, respectively. Moreover, the results for the concentration at 24 h in data set [2] (i.v. 0.1 mg/kg) and in data set [2] (i.v. 0.8 mg/kg) were 26.8 ng/mL and 191 ng/mL, respectively. Besides, the dose excreted at 24 h in data set [2] (i.v. 0.1 mg/kg) was 0.29%; in data set [2] (i.v. 0.8 mg/kg) it was 0.14%. The dose excreted at 8 h in data set [3] (i.v. 0.7 mg/kg) was found to be 3.57%; in data set [3] (i.v. 5.5 mg/kg), 8.89%.
